The values that follow come from patent US5463062A, “Substituted cyclohexane derivatives, processes for their preparation and the use of the compounds for treating diseases” (Hoechst Aktiengesellschaft, priority 1992, dated 1995).

The subject of one test is glucose-6-phosphatase. The conditions noted are these: in words, literature; cited from earlier work.
In test [1] the target is T1, glucose-6-phosphatase system (Rattus norvegicus, UniProt F7EWB7).
T1 construct: To prepare the microsomal fraction containing the glucose-6-phosphatase, fresh liver organs from male Wistar rats were used; from tissue; host or cells: liver of male Wistar rats, microsomal fraction
T1 sequence (F7EWB7 1-429): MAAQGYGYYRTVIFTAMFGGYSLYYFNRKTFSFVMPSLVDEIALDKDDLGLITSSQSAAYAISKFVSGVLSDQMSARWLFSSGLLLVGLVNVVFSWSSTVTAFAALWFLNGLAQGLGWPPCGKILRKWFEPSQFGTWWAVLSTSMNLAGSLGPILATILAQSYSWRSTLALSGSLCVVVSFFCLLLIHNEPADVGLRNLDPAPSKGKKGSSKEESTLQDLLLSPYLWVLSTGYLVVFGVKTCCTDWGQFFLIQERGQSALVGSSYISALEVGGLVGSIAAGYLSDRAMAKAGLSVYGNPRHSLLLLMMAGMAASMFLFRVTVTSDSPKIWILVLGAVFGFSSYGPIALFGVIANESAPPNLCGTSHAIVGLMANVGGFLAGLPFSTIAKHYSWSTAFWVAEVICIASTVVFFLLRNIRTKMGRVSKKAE
In words: enzyme assay of glucose-6-phosphatase activity in liver microsomes (phosphate liberated from glucose-6-phosphate). The test is classed as biochemical, male Wistar rats. The conditions noted are these: for IC50: rat liver microsomes, glucose-6-phosphate 1 mmol/l, pH 7.0, 20 min at room temperature. Here is the method:
The effect of the compounds according to the invention on the glucose-6-phosphatase system has been investigated in an enzyme assay in liver microsomes.
To prepare the microsomal fraction containing the glucose-6-phosphatase, fresh liver organs from male Wistar rats were used and processed as described in the literature [Canfield, W. K. and Arion, W. J., J. Biol. Chem. 263, 7458-7460, (1988)]. This microsomal fraction can be stored at -70° C. without significant loss of activity for at least 2 months. The glucose-6-phosphatase activity was detected as indicated in the literature [Arion, W. J. in Methods Enzymol. 174, Academic Press 1989, pages 58-67) by determining the phosphate liberated from glucose-6-phosphate. 0.1 ml of assay mixture contained glucose-6-phosphate(1 mmol/l), the test substance, 0.1 mg of microsomal fraction and 100 mmol/l HEPES buffer (4-(2-hydroxyethyl)piperazine-1-ethanesulfonic acid), pH 7.0. The reaction was started by adding the enzyme. After 20 min at room temperature, the reaction was stopped by adding 0.2 ml of phosphate reagent. The sample was incubated at 37° C. for 30 min, and the absorption (A) of the blue color was subsequently measured at 570 nm. The inhibitory activity of the test substance was found by comparison with a control reaction which contained no test substance, using the formula [formula]
Where necessary, the inhibitory effect of the test substance was determined as a function of the test substance concentration employed, and from this the concentration for 50% inhibition of enzyme activity (IC50) was calculated.
The IC50 was determined for the compounds listed hereinafter: […]

For orientation: IC50 means the point on the concentration scale where inhibition reaches its midpoint.

For `O=C(CCc1ccc(O)cc1)c1c(O)cc(O)cc1O[C@@H]1O[C@H](CO)[C@@H](O)[C@H](O)[C@H]1O` [phlorrhizin], the “inhibition of glucose-6-phosphatase” value with glucose-6-phosphatase is listed as “non-specific inhibitors of glucose-6-phosphatase”.

In the case of `O=C(/C=C/c1ccc(O)cc1)O[C@@H]1C[C@](OCc2cccs2)(C(=O)O)C[C@H](O)[C@H]1O` [Example 2, [1S,3R,4R,5S]-3-[(E)-3-(4-hydroxyphenyl)-2-propenoyl]oxy-4,5-dihydroxy-1-(2-thienylmethyl)oxycyclohexanecarboxylic acid], the half-maximal inhibitory concentration (IC50) in test [1] is 110 µM. On to `O=C(CCC1CCCCC1)O[C@@H]1C[C@](OCC2CC2c2ccc(Cl)cc2)(C(=O)O)C[C@@H](O)[C@H]1O` (some centres unmarked) [Example 113], for which the IC50 in test [1] (TABLE) turned out to be 3.7 µM. The same measure, in the same setting: then `O=C(CCC1CCCCC1)O[C@@H]1C[C@](OCCCc2ccc(Cl)cc2)(C(=O)O)C[C@@H](O)[C@H]1O` [Example 120], with 0.69 µM. Take `S=C=Nc1ccccc1C=Cc1ccccc1N=C=S` [2,2'-diisothiocyanatostilbene]: the “inhibition of glucose-6-phosphatase” value in the test on glucose-6-phosphatase is reported as “non-specific inhibitors of glucose-6-phosphatase”.

Turning to `CC(=O)Oc1ccccc1C=Cc1ccccc1N=C=S` [2-isothiocyanato-2'-acetoxystilbene], the “inhibition of glucose-6-phosphatase” value in the test with glucose-6-phosphatase was “non-specific inhibitors of glucose-6-phosphatase”. In the case of `O=C(O[C@@H]1C[C@](OCCCc2ccc(Cl)cc2)(C(=O)O)C[C@@H](O)[C@H]1O)c1snnc1-c1ccccc1` [Example 116], the IC50 in test [1] (TABLE) came out at 4.5 µM. For `O=C(CCc1ccc(O)cc1)O[C@@H]1C[C@](OCCCc2ccc(Cl)cc2)(C(=O)O)C[C@@H](O)[C@H]1O` [Example 44, [1S,3R,4R,5S]-1-(4-chlorophenylpropyl)oxy-3-[(E)-3-(4-hydroxyphenyl)propoyl]oxy-4,5-dihydroxycyclohexanecarboxylic acid], the half-maximal inhibitory concentration (IC50) in test [1] was determined as 9.3 µM.

In the case of `O=C(COc1ccccc1)O[C@@H]1C[C@](OCCCc2ccc(Cl)cc2)(C(=O)O)C[C@@H](O)[C@H]1O` [Example 119], the half-inhibitory concentration (IC50) in test [1] (TABLE) was found to be 12 µM. Still for that read-out and setting: in the case of `C=Cc1ccc(C(=O)O[C@@H]2C[C@](OCCCc3ccc(Cl)cc3)(C(=O)O)C[C@@H](O)[C@H]2O)cc1` [Example 118] it was 1.3 µM; in that of `O=C(CC(C1CCCCC1)n1ccnc1)O[C@@H]1C[C@](OCCCc2ccc(Cl)cc2)(C(=O)O)C[C@@H](O)[C@H]1O` (some centres unmarked) [Example 69], 170 µM. With `O=C(/C=C/c1ccc(O)cc1)O[C@@H]1C[C@](OCc2ccccc2)(C(=O)O)C[C@H](O)[C@H]1O` [Example 1, [1S,3R,4R,5S]-3-[(E)-3-(4-hydroxyphenyl)propenoyl]oxy-4,5-dihydroxy-1-phenylmethyloxy-cyclohexanecarboxylic acid], the half-maximal inhibitory concentration (IC50) in test [1] is 190 µM. Consider `CCCO[C@@]1(C(=O)O)C[C@H](O)[C@@H](O)[C@H](OC(=O)/C=C/c2ccc(O)cc2)C1` [Example 8, [1S,3R,4R,5S]-3-[(E)-3-(4-hydroxyphenyl)-2-propenoyl]oxy-4,5-dihydroxy-1-propyloxycyclohexanecarboxylic acid], for which the IC50 in test [1] (unit printed as "82 M") stood at 230 µM. `O=C(CCCCC1CCCCC1)O[C@@H]1C[C@](OCCCc2ccc(Cl)cc2)(C(=O)O)C[C@@H](O)[C@H]1O` [Example 114]: in test [1] (TABLE), the 50% inhibitory concentration (IC50) stood at 5 µM. Turning to `O=C(/C=C/c1ccc(O)cc1)O[C@@H]1C[C@](OCc2cccc3ccccc23)(C(=O)O)C[C@H](O)[C@H]1O` [Example 14, [1S,3R,4R,5S]-1-(1-naphthylmethyl)oxy-3-[(E)-3-(4-hydroxyphenyl)-2-propenoyl]oxy-4,5-dihydroxycyclohexanecarboxylic acid], in test [1] (in words), the “inhibition of the glucose-6-phosphatase system” value was “inhibitors of the glucose-6phosphatase system”. For `O=C(O)c1cc(SSc2ccc([N+](=O)[O-])c(C(=O)O)c2)ccc1[N+](=O)[O-]` [5,5'-dithiobis-2-nitrobenzoic acid], in the test with glucose-6-phosphatase, the “inhibition of glucose-6-phosphatase” value is given as “non-specific inhibitors of glucose-6-phosphatase”. `CC(C)CCC(=O)O[C@@H]1C[C@](OCCCc2ccc(Cl)cc2)(C(=O)O)C[C@@H](O)[C@H]1O` [Example 117]: the IC50 in test [1] (TABLE) was 41 µM. Still for that read-out and setting: then `O=C(O[C@@H]1C[C@](OCCCc2ccc(Cl)cc2)(C(=O)O)C[C@@H](O)[C@H]1O)C1CCCCC1` [Example 115], with 8.9 µM. As to `O=C(O[C@@H]1C[C@](OCCCc2ccc(Cl)cc2)(C(=O)O)C[C@H](O)[C@H]1O)c1ccccn1` [Example 4, [1S,3R,4R,5S]-1-(4-chlorophenylpropyl)oxy-4,5-dihydroxy-3-(2-pyridinecarbonyl)oxycyclohexanecarboxylic acid], the half-maximal inhibitory concentration (IC50) in test [1] is 26 µM. Same read-out and setting: then `C#CCO[C@@]1(C(=O)O)C[C@H](O)[C@@H](O)[C@H](OC(=O)/C=C/c2ccc(O)cc2)C1` [Example 3, [1S,3R,4R,5S]-3-[(E)-3-(4-hydroxyphenyl)-2-propenoyl]oxy-4,5-dihydroxy-1-(2-propynyl)oxycyclohexanecarboxylic acid], with 560 µM.
